Measurements: patent US20260217652A1, “PHENYL-SUBSTITUTED HETEROARYL COMPOUND AND PHARMACEUTICAL COMPOSITION COMPRISING SAME, PREPARATION METHOD THEREFOR AND USE THEREOF” (SHANGHAI MEIYUE BIOTECH DEVELOPMENT CO., LTD., priority 2023, published 2026)

Legend:
[1] = In vitro liver microsome stability, mouse; assay type: in vitro ADME; conditions: liver microsomes, 0.5 mg/mL microsomes, 1 μM compound, NADPH, 37° C., read-out: Mouse liver microsomes Half-life T1/2
Experimental: The reference compound used in this experiment was Ketanserin, and the final concentration of microsomes in the experimental system was 0.5 mg/mL. The PBS buffer was a 50 mM K2HPO4 buffer. The concentration of the test compound was 1 μM. The microsomes were added to PBS, and the control/test compounds were respectively added to the corresponding reaction systems, mixed thoroughly, and pre-incubated in a 37° C. water bath for 5 minutes. The reaction was initiated by adding 20 mM NADPH solution under 37° C. water bath conditions (for the No NADPH samples, an equal volume of PBS solution was used as a substitute for the 20 mM NADPH solution). At the reaction time points of 0 min, 10 min, 30 mun, 60 min, and 90 min, 30 μL of reaction samples were taken from each reaction system (for the No NADPH samples, sampling was performed at 0 min and 90 min), and the reaction was immediately terminated by adding 300 μL of the internal standard acetonitrile solution. After centrifugation at 4000 rpm, the supernatant was taken and mixed thoroughly with an equal volume of pure water. The samples at each time point were analyzed by LC-MS/MS (AB Triple Quard 5500) to determine the compound content, and the T1/2 was calculated.

[2] = system: TNF-α in human PBMC cells; experiment: In vitro TNF-α activity assay in human PBMC cell supernatant (LPS, ELISA); assay type: cell-based; conditions: Homo sapiens, PBMC, 24 h, LPS 100 ng/mL, read-out: p38 MAPK/TNF-α IC50
Experimental: The inhibitory effect of the compound on TNF-α in the supernatant of human PBMC cells was evaluated using an ELISA detection kit (Beyotime, PI518). The test compound was dissolved in DMSO to obtain a 10 mM stock solution and stored at −20° C. for future use. The initial concentration of the compound was […], followed by 5-fold serial dilution to obtain 6 concentrations. Cells were plated in duplicate, and ELISA was performed in single wells. The final concentration of DMSO was 0.4%. Alternatively, the initial concentration of the compound, dilution factor, number of concentration gradients, and replicates could be adjusted based on the specific screening conditions.
Fresh human peripheral blood mononuclear cells (PBMCs) (Sailybio) were seeded at a density of 2×10^5 cells per well in a 96-well plate (Corning, 3599), with each well containing 100 μL of RPMI-1640 (Gibco #A1049101)+10% FBS (Gibco, 10099141C), and incubated overnight at 37° C. under 5% CO2. Test compounds were added to the 96-well culture plate at a volume of 25 μL per well. After 1 hour, 5 μL of LPS was added to achieve a final concentration of 100 ng/mL. No LPS and compound were added to the negative control wells, and no compound was added to the positive control wells. The mixture was further incubated for 24 hours at 37° C. under 5% CO2. Subsequently, the cell culture supernatant was collected by centrifugation at 500 rcf for 8 minutes. The concentration of TNF-α was measured according to the operation manual of the ELISA kit. The concentration-effect curve was fitted using GraphPad Prism 8 software, and the compound concentration resulting in 50% inhibition, IC50, was calculated.

half-life at 1 μM [1]: 1.79 h
Structure (SMILES): CNC(=O)c1cccc(-c2ncc(C)c(-n3c(C)cc(OCc4ncc(F)cc4F)c(Cl)c3=O)c2F)c1 [Compound 31-P1]
IC50 [2]: 3.79 nM
